≈ marks a conversion by molar mass, not a printed value. Calls of active or inactive are those of the source. The rule behind the calls is not given here.
How the values were obtained:
Staphylococcus aureus [1] = test: Antibacterial activity against methicillin resistant Staphylococcus aureus ATCC 33591 assessed as reduction in bacterial growth; assay type: functional
Ralstonia solanacearum = test: Antibacterial activity against Ralstonia solanacearum assessed as bacterial growth inhibition; assay type: functional
Pseudomonas syringae = test: Antibacterial activity against Pseudomonas syringae pv. actinidiae assessed as bacterial growth inhibition; assay type: functional
Staphylococcus aureus [2] = test: Antibacterial activity against Staphylococcus aureus ATCC 25923 assessed as reduction in bacterial growth; assay type: functional
Bacillus cereus = test: Antibacterial activity against Bacillus cereus assessed as reduction in bacterial growth; assay type: functional
Escherichia coli [3] = test: Antibacterial activity against Escherichia coli ATCC 25922 assessed as reduction in bacterial growth; assay type: functional
BV-2 = test: Cytotoxicity against mouse BV-2 cells assessed as inhibition of cell growth at 20 to 50 microg/ml measured for 24 hrs by MTT assay; assay type: toxicity, cell-based; settings: bv-2, 24 h, dose 20-50 µg/ml
Staphylococcus aureus [4] = test: Bactericidal activity against Staphylococcus aureus ATCC 25923 assessed as reduction in bacterial growth; assay type: functional
PC-12 = test: Cytotoxicity against rat PC12 cells assessed as inhibition of cell growth at 20 to 50 microg/ml measured for 24 hrs by MTT assay; assay type: toxicity, cell-based; settings: pc-12, 24 h, dose 20-50 µg/ml
Staphylococcus aureus [5] = test: Antibacterial activity against methicillin resistant Staphylococcus aureus assessed as reduction in bacterial growth at 8 microg/ml measured for 2 hrs; assay type: functional; settings: dose 8 µg/ml
Staphylococcus aureus [6] = test: Antibacterial activity against methicillin resistant Staphylococcus aureus assessed as reduction in bacterial growth at 16 microg/ml measured for 2 hrs; assay type: functional; settings: dose 16 µg/ml
Staphylococcus aureus [7] = test: Antibacterial activity against methicillin resistant Staphylococcus aureus assessed as reduction in bacterial growth at 8 times MIC measured at 24 hrs by time kill assay; assay type: functional, organism-based
Staphylococcus aureus [8] = test: Bactericidal activity against methicillin resistant Staphylococcus aureus ATCC 33591 assessed as reduction in bacterial growth; assay type: functional
Escherichia coli [9] = test: Bactericidal activity against Escherichia coli ATCC 25922 assessed as reduction in bacterial growth; assay type: functional

SMILES	MIC (Staphylococcus aureus [1]) [µg/mL]	MIC (Ralstonia solanacearum) [µg/mL]	MIC (Pseudomonas syringae) [µg/mL]	MIC (Staphylococcus aureus [2]) [µg/mL]	MIC (Bacillus cereus) [µg/mL]	MIC (Escherichia coli [3]) [µg/mL]	Activity (BV-2)	MBC (Staphylococcus aureus [4]) [µg/mL]	Activity (PC-12)	PAE (Staphylococcus aureus [5]) [h]	PAE (Staphylococcus aureus [6]) [h]	Activity (Staphylococcus aureus [7])	MBC (Staphylococcus aureus [8]) [µg/mL]	MBC (Escherichia coli [9]) [µg/mL]
Cn1cc(CN2CCN(Cc3ccc(C(F)(F)F)cc3N3CCCC3)CC2)c2cc(F)ccc21	8 (≈ 16.9 µM)	32 (≈ 67.4 µM)	32 (≈ 67.4 µM)	8 (≈ 16.9 µM)	8 (≈ 16.9 µM)	32 (≈ 67.4 µM)	–	–	–	–	–	–	–	–
N#Cc1ccc2[nH]cc(CN3CCN(Cc4ccc(C(F)(F)F)cc4N4CCCC4)CC3)c2c1	16 (≈ 34.2 µM)	128 (≈ 274 µM)	128 (≈ 274 µM)	16 (≈ 34.2 µM)	16 (≈ 34.2 µM)	128 (≈ 274 µM)	–	–	–	–	–	–	–	–
O=[N+]([O-])c1ccc2[nH]cc(CN3CCN(Cc4ccc(C(F)(F)F)cc4N4CCCC4)CC3)c2c1	16 (≈ 32.8 µM)	32 (≈ 65.6 µM)	32 (≈ 65.6 µM)	16 (≈ 32.8 µM)	16 (≈ 32.8 µM)	32 (≈ 65.6 µM)	–	–	–	–	–	–	–	–
Cn1cc(CN2CCN(Cc3ccc(Cl)cc3Cl)CC2)c2cc(F)ccc21	8 (≈ 19.7 µM)	32 (≈ 78.8 µM)	32 (≈ 78.8 µM)	8 (≈ 19.7 µM)	8 (≈ 19.7 µM)	32 (≈ 78.8 µM)	–	–	–	–	–	–	–	–
N#Cc1ccc2[nH]cc(CN3CCN(Cc4ccc(Cl)cc4Cl)CC3)c2c1	8 (≈ 20 µM)	32 (≈ 80.1 µM)	32 (≈ 80.1 µM)	16 (≈ 40.1 µM)	8 (≈ 20 µM)	32 (≈ 80.1 µM)	–	–	–	–	–	–	–	–
FC(F)(F)c1ccc(CN2CCN(Cc3c[nH]c4ccc(Cl)cc34)CC2)c(N2CCCC2)c1	4 (≈ 8.39 µM)	8 (≈ 16.8 µM)	8 (≈ 16.8 µM)	4 (≈ 8.39 µM)	4 (≈ 8.39 µM)	16 (≈ 33.5 µM)	Non-Toxic	8 (≈ 16.8 µM)	Non-Toxic	0.36	0.61	Active	8 (≈ 16.8 µM)	32 (≈ 67.1 µM)
Cn1cc(CN2CCN(Cc3ccc(C(F)(F)F)cc3N3CCCC3)CC2)c2cc(C#N)ccc21	16 (≈ 33.2 µM)	32 (≈ 66.4 µM)	32 (≈ 66.4 µM)	16 (≈ 33.2 µM)	16 (≈ 33.2 µM)	32 (≈ 66.4 µM)	–	–	–	–	–	–	–	–
Cn1cc(CN2CCN(Cc3ccc(C(F)(F)F)cc3N3CCCC3)CC2)c2cc(Br)ccc21	8 (≈ 14.9 µM)	16 (≈ 29.9 µM)	16 (≈ 29.9 µM)	16 (≈ 29.9 µM)	16 (≈ 29.9 µM)	32 (≈ 59.8 µM)	–	–	–	–	–	–	–	–
Fc1ccc2[nH]cc(CN3CCN(Cc4ccc(C(F)(F)F)cc4N4CCCC4)CC3)c2c1	8 (≈ 17.4 µM)	128 (≈ 278 µM)	128 (≈ 278 µM)	16 (≈ 34.7 µM)	8 (≈ 17.4 µM)	128 (≈ 278 µM)	–	–	–	–	–	–	–	–
Cn1cc(CN2CCN(Cc3ccc(C(F)(F)F)cc3N3CCCC3)CC2)c2cc([N+](=O)[O-])ccc21	128 (≈ 255 µM)	128 (≈ 255 µM)	128 (≈ 255 µM)	128 (≈ 255 µM)	128 (≈ 255 µM)	128 (≈ 255 µM)	–	–	–	–	–	–	–	–
FC(F)(F)c1ccc(CN2CCN(Cc3c[nH]c4ccc(Br)cc34)CC2)c(N2CCCC2)c1	8 (≈ 15.3 µM)	32 (≈ 61.4 µM)	32 (≈ 61.4 µM)	8 (≈ 15.3 µM)	8 (≈ 15.3 µM)	32 (≈ 61.4 µM)	–	16 (≈ 30.7 µM)	–	–	–	–	16 (≈ 30.7 µM)	32 (≈ 61.4 µM)
Cn1cc(CN2CCN(Cc3ccc(Cl)cc3Cl)CC2)c2cc(C#N)ccc21	8 (≈ 19.4 µM)	16 (≈ 38.7 µM)	32 (≈ 77.4 µM)	8 (≈ 19.4 µM)	8 (≈ 19.4 µM)	32 (≈ 77.4 µM)	–	–	–	–	–	–	–	–
Cn1cc(CN2CCN(Cc3ccc(C(F)(F)F)cc3N3CCCC3)CC2)c2cc(Cl)ccc21	64 (≈ 130 µM)	64 (≈ 130 µM)	64 (≈ 130 µM)	32 (≈ 65.2 µM)	32 (≈ 65.2 µM)	64 (≈ 130 µM)	–	–	–	–	–	–	–	–

From ChEMBL document CHEMBL5257124, “Design, synthesis and biological evaluation of novel indole-piperazine derivatives as antibacterial agents” (Bioorg Med Chem Lett, 2023)
